The values below come from patent publication US20100087516A1, “ANTIBACTERIAL MACROLACTIN A THAT BACILLUS POLYFERMENTICUS KJS-2 PRODUCED IN” (priority 2007, published 2010).

Each structure is given as a SMILES string.

One data set relates to Vibrio vulnificus. Nature of the data set: Bioassay of Macrolactin A on TSB agar medium. It is filed as cell-based. As to conditions: 10 μl of solution in 50% acetone (2.5 mg/ml). The method, then:
(§1) The strains used for the experiment were Saccharomyces cerevisiae, Vibrio vulnificus, Micrococcus luteus and Streptococcus parauberis. Each strain, except Vibrio vulnificus, was inoculated and cultured in TSB medium at 200 rpm for 16 hours at 37° C., and then a 0.5 ml (approximately 28*10^9 cfu/ml) aliquot of the culture medium was spread over TSB agar medium. Vibrio vulnificus, was inoculated and cultured in TSB medium at 200 rpm for 16 hours at 25° C., which is its optimum growth conation, and then the amount of the culture medium was spread over the agar medium. The solvent required for the bioassay is a solvent, which can dissolve Macrolactin A, that has no toxicity against the strains used for the experiment.

The test system of another data set is Saccharomyces cerevisiae. Nature of the data set: Bioassay of Macrolactin A on TSB agar medium. Format: cell-based. The following applies: 10 μl of solution in 50% acetone (2.5 mg/ml). On the procedure: as §1
A further data set deals with Micrococcus luteus. Nature of the data set: Bioassay of Macrolactin A on TSB agar medium. It is filed as cell-based. The following applies: 10 μl of solution in 50% acetone (2.5 mg/ml). On the procedure: as §1
A further data set has as its system Streptococcus parauberis. Nature of the data set: Bioassay of Macrolactin A on TSB agar medium. It is filed as cell-based. As to conditions: 10 μl of solution in 50% acetone (2.5 mg/ml). On the procedure:
as §1

A short description of a further data set: Heat and pH stability. Format: physicochemical.

In the case of `CC1CCC/C=C/C=C/C(O)CC(O)C/C=C\C=C\C(O)C/C=C/C=C\C(=O)O1` (stereo not drawn) [Macrolactin A], the “antibiotic activity against Vibrio vulnificus” value in the data set on Vibrio vulnificus is listed as “excellent antibiotic activity”. In the data set on Saccharomyces cerevisiae, the “antibiotic activity against Saccharomyces cerevisiae” value was “excellent antibiotic activity”. Further, in the data set with Micrococcus luteus, the “antibiotic activity against Micrococcus luteus” value is recorded as “excellent antibiotic activity”. The “antibiotic activity against Streptococcus parauberis” value with Streptococcus parauberis is “excellent antibiotic activity”. Moreover, in “Heat and pH stability”, the heat stability entry was “excellent heat stability”. Also, the “stability in weak acidic and neutral environments” value in the data set “Heat and pH stability” (weak acidic and neutral environments) is listed as “very stable”.
